Data on four compounds can be found in ChEMBL document CHEMBL5244201, “Non-covalent albumin-binding ligands for extending the circulating half-life of small biotherapeutics” (Medchemcomm, 2019).

For orientation: Kd means the equilibrium constant for the complex coming apart.

A short description of data set [1]: Terminal half life in iv dosed mouse. Format: ADME, organism-based. The conditions noted are these: in vivo, read-out: beta t1/2 (converted).
The target of data set [2] is T1, Albumin (Homo sapiens, UniProt P02768). As to the kind of experiment: Binding affinity to human albumin assessed as dissociation constant by fluorescence polarization assay. A general note: In fluorescence polarisation assays a small probe gives low polarisation when free and higher when bound to something large.
T1 sequence (P02768 whole entry): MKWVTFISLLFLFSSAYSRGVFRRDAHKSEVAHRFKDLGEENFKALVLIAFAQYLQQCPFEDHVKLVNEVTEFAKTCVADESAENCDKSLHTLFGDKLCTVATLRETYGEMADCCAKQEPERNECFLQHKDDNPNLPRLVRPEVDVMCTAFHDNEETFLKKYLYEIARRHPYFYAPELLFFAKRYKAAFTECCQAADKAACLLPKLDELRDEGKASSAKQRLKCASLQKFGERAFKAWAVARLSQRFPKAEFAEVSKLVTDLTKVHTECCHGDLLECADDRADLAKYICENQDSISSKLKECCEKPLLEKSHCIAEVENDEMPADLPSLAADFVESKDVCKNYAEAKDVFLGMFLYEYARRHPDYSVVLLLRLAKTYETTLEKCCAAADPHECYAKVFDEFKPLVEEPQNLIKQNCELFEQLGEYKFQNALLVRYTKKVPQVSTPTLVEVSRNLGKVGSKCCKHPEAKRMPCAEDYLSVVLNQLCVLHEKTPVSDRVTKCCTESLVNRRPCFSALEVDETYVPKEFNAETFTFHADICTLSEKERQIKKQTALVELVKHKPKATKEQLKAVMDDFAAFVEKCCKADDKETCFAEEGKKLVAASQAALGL
In data set [3] the target is T2, Albumin (Mus musculus, UniProt P07724). The data set is described as follows: Binding affinity to mouse albumin assessed as dissociation constant by fluorescence polarization assay.
T2 sequence (P07724 whole entry): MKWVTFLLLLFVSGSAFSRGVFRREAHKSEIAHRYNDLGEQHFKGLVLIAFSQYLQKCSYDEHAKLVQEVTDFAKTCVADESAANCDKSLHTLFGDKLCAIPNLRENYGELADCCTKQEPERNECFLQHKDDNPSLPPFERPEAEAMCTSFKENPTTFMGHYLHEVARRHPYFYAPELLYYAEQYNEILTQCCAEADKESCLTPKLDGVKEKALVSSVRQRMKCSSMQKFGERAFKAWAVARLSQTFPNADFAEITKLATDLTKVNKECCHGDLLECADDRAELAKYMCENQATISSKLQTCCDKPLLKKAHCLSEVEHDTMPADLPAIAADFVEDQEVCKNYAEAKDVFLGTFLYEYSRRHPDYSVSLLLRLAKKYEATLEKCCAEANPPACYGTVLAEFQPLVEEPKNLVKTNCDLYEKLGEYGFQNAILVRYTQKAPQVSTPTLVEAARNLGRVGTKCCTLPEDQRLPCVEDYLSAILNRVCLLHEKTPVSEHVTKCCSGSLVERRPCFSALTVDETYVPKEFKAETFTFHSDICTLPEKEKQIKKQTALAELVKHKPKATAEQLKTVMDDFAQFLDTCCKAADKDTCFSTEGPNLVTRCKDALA
In data set [4] the target is T1, Albumin. As to the kind of experiment: Binding affinity to human albumin assessed as dissociation constant by ITC method. In general terms: Isothermal titration calorimetry measures the heat released or taken up as one component is titrated into another.
For data set [5], the target named is T2, Albumin. The data set is described as follows: Binding affinity to mouse albumin.
Data set [6] deals with T1, Albumin. As to the kind of experiment: Binding affinity to human albumin.
Data set [7] has as its target T1, Albumin. As to the kind of experiment: Binding affinity to human albumin assessed as dissociation constant.
The species entered for a further data set is Macaca fascicularis. As to the kind of experiment: Terminal half life in monkey. The following applies: cynomolgus monkey, in vivo; read-out: beta t1/2 (converted).
Data set [8] concerns the target T1, Albumin. As to the kind of experiment: Binding affinity to human serum albumin by fluorescence polarization assay.

Consider `O=C(CCCc1ccc(I)cc1)NCCCC[C@@H](NC(=O)c1ccc(-c2c3ccc(=O)cc-3oc3cc(O)ccc23)c(C(=O)O)c1)C(=O)O`, for which, in [1], the half-life is 8.25 h. Further, the Kd at Albumin [2] came out at 108 nM; at Albumin [3] it was 118 nM; at Albumin [4], 330 nM.

As to `O=C(CCCc1ccc(I)cc1)NCCCCC(NC(=O)c1ccc2c(c1)C(=O)OC21c2ccc(O)cc2Oc2cc(O)ccc21)C(=O)O` (stereo not given), the half-life in data set [1] is 16.6 h. The Kd stood at 3600 nM on Albumin [5] and 3200 nM at Albumin [6].

With Ac-WWEQDRDWDFDVFGGGTP-NH2, at Albumin [7], the dissociation constant (Kd) turned out to be 15 nM. In the data set listed under Macaca fascicularis, the half-life is 31.2 h.

At Albumin [8], `Cc1cccc(OCc2cn(CCCC[C@@H]3NC(=O)CNC(=O)[C@@H]4CCCN4C(=O)[C@H](CCCCNC(=O)c4cnc(N5CCOCC5)c(N)c4)NC(=O)[C@H](CCCCNC(=S)Nc4ccc5c(c4)C(=O)OC54c5ccc(O)cc5Oc5cc(O)ccc54)NC(=O)[C@H](C)NC(=O)CNC(=O)[C@@H]4CCCN4C(=O)[C@H](CCCCNC(=O)c4cccc(Oc5ccccc5)c4)NC(=O)[C@H](C)NC3=O)nn2)n1` returned an equilibrium dissociation constant (Kd) of 6600 nM.
